The values that follow come from patent EP4541797A1, “CAMPTOTHECIN DERIVATIVE, METHOD FOR PREPARING SAME, AND USE THEREOF” (Hangzhou Adcoris Biopharma Co., Ltd, priority 2022, dated 2024).

One assay deals with OE33 cells. Put plainly: Inhibitory activity on cancer cell growth (CCK-8, 72 h), OE33 cells. The class given is cell-based. The following applies: Homo sapiens, OE33, 72 h, human esophageal cancer cells OE33, 72 h incubation. As to the method:
(§1) Human esophageal cancer cells OE33, human breast adenocarcinoma cells SK-BR-3 and human gastric cancer cells NCI-N87 were cultured in RPMI1640 (Cellmax) supplemented with 10% fetal bovine serum (Cellmax) respectively. Cells in the exponential growth phase were diluted to a concentration of 1×10^5cells/mL by culture medium and added to 96-well cell culture plates at 100µL per well, then incubated overnight in a 37°C incubator with 5% CO2. On the following day, the test compounds and control compounds were diluted to concentrations of 10000 nM, 2000 nM, 400 nM, 80 nM, 16 nM, 3.2 nM, 0.64 nM, and 0.13 nM by culture medium and added to the 96-well cell culture plates at 2µL per well, with three replicate wells for each concentration. Negative control and blank control groups without the addition of compounds were supplemented with 2µL of the dilution liquid per well. After the addition of the compounds, the plates were returned to the 37°C incubator with 5% CO2 to continue incubation for 72 h. After incubation, the cell culture plates were removed, and the culture medium was aspirated using a pipette. Then, 100µL of culture medium containing 10% CCK-8 was added to each well, and the plates were incubated at 37°C for 3 h. After incubation, the plates were removed, kept in the dark, and placed in ELISA plate. Absorbance was measured at 630nm as the reference wavelength and 450nm as the test wavelength. The IC50 values (Tables 1-3) were calculated using the four-parameter logistic regression method in GraphPad, based on the absorbance values. SN38 (7-ethyl-10-hydroxycamptothecin) and 10CPT (10-hydroxycamptothecin) were used as control compounds. For the IC50 values, wherein "++++" indicates an IC50 < 50 nM; "+++" indicates an IC50 between 50 nM and 100 nM; "++" indicates an IC50 between 100 nM and 500 nM; and "+" indicates an IC50 > 500 nM. Table 1: Inhibitory activity of compounds to inhibit the growth of OE33 cells

The next assay relates to SK-BR-3 cells. Put plainly: Inhibitory activity on cancer cell growth (CCK-8, 72 h), SK-BR-3 cells. The class given is cell-based. The following applies: Homo sapiens, SK-BR-3, 72 h, human breast adenocarcinoma cells SK-BR-3, 72 h incubation. As for the experimental part: as §1

Usually IC50 stands for the point on the concentration scale where inhibition reaches its midpoint.

Like-named read-outs stand apart in the source and are kept apart here.

In the case of `CC[C@@]1(O)C(=O)OCc2c1cc1n(c2=O)Cc2cc3c(CN4CCC(N)CC4)c(O)ccc3nc2-1` [Compound 1, 9-(1-(4-aminopiperidine))methyl-10-hydroxycamptothecin], the half-inhibitory concentration (IC50) lay in the range of 0.1 to 0.5 µM in the assay on OE33 cells (read-out: IC50) and 0.05 to 0.1 µM in the assay with SK-BR-3 cells (read-out: IC50). Turning to `CC[C@@]1(O)C(=O)OCc2c1cc1n(c2=O)Cc2cc3c(CN4CCNCC4)c(O)ccc3nc2-1` [Compound 2, 9-(1-piperazine)methyl-10-hydroxycamptothecin], the concentration for half-maximal inhibition (IC50) in the assay on OE33 cells and in the assay with SK-BR-3 cells was 0.05 to 0.1 µM each time. On to `CC[C@@]1(O)C(=O)OCc2c1cc1n(c2=O)Cc2cc3c(CN4CCC(ON)CC4)c(O)ccc3nc2-1` [Compound 3, 9-(1-(4-aminoxypiperidine))methyl-10-hydroxycamptothecin], for which the half-inhibitory concentration (IC50) with OE33 cells (read-out: IC50) fell in the range of 0.1 to 0.5 µM. In the case of `CC[C@@]1(O)C(=O)OCc2c1cc1n(c2=O)Cc2cc3c(CN4CCC(OC)CC4)c(O)ccc3nc2-1` [Compound 5, 9-(1-(4-methoxypiperidine))methyl-10-hydroxycamptothecin], the figures for the IC50 in the assay with OE33 cells (read-out: IC50) and in the assay on SK-BR-3 cells (read-out: IC50) were 0.05 to 0.1 µM and over 0.5 µM, respectively. Turning to `CC[C@@]1(O)C(=O)OCc2c1cc1n(c2=O)Cc2cc3c(CN4CCN(C(=O)C5CC5)CC4)c(O)ccc3nc2-1` [Compound 6, 9-(1-(4-cyclopropylcarbonylpiperazine))methyl-10-hydroxycamptothecin], the IC50 was in the range of 0.1 to 0.5 µM in the assay on OE33 cells and 0.05 to 0.1 µM in the assay on SK-BR-3 cells. Consider `CC[C@@]1(O)C(=O)OCc2c1cc1n(c2=O)Cc2cc3c(CN4CCN(C(C)=O)CC4)c(O)ccc3nc2-1` [Compound 7, 9-(1-(4-acetylpiperazine))methyl-10-hydroxycamptothecin], for which the IC50 with OE33 cells (read-out: IC50) and in the assay on SK-BR-3 cells (read-out: IC50) was 0.05 to 0.1 µM throughout. Take `CC[C@@]1(O)C(=O)OCc2c1cc1n(c2=O)Cc2cc3c(CN4CCC(C(N)=O)CC4)c(O)ccc3nc2-1` [Compound 8]: the IC50 with OE33 cells and in the assay on SK-BR-3 cells was 0.1 to 0.5 µM in each case. Take `CC[C@@]1(O)C(=O)OCc2c1cc1n(c2=O)Cc2cc3c(CN(C)CCN)c(O)ccc3nc2-1` [Compound 13, 9-(N-methyl-N-aminoethylamino)methyl-10-hydroxycamptothecin]: in the assay with OE33 cells (read-out: IC50), the IC50 is 0.1 to 0.5 µM.

For the compound `CC[C@@]1(O)C(=O)OCc2c1cc1n(c2=O)Cc2cc3c(CN(C)C4CCOCC4)c(O)ccc3nc2-1` [Compound 14, 9-(N-methyltetrahydropyran-4-amine)methyl-10-hydroxycamptothecin], in the assay with OE33 cells, the 50% inhibitory concentration (IC50) lay within 0.1 to 0.5 µM.

As to `CC[C@@]1(O)C(=O)OCc2c1cc1n(c2=O)Cc2cc3c(CN(C)C4CCC(O)CC4)c(O)ccc3nc2-1` (stereo partly drawn) [Compound 16, 9-(N-methyl-trans-4-hydroxycyclohexylamine)methyl-10-hydroxycamptothecin], the IC50 with OE33 cells (numeric value or bound, read-out: IC50) is 0.000221 µM.

In the case of `CCNCc1c(O)ccc2nc3c(cc12)Cn1c-3cc2c(c1=O)COC(=O)[C@]2(O)CC` [Compound 20, 9-(ethylamine)methyl-10-hydroxycamptothecin], the IC50 in the assay with OE33 cells was in the range of 0.1 to 0.5 µM. As for `CC[C@@]1(O)C(=O)OCc2c1cc1n(c2=O)Cc2cc3c4c(ccc3nc2-1)OCN(N1CCOCC1)C4` [Compound 22, 3-(N-morpholine)-1.3-oxazino[5,6][9,10]camptothecin], in the assay on OE33 cells (read-out: IC50), the half-maximal inhibitory concentration (IC50) lay in the range of 0.1 to 0.5 µM.

In the case of `CC[C@@]1(O)C(=O)OCc2c1cc1n(c2=O)Cc2cc3c(CN(C)NC(=O)OC(C)(C)C)c(O)ccc3nc2-1` [Compound 23, 9-(1-methyl-2-Boc-hydrazine)methyl-10-hydroxycamptothecin], the IC50 with OE33 cells (read-out: IC50) is under 0.05 µM. On to `CC[C@@]1(O)C(=O)OCc2c1cc1n(c2=O)Cc2cc3c(CN(C)CCCN)c(O)ccc3nc2-1` [Compound 25, 9-(1-methyl-3-aminopropylamine)methyl-10-hydroxycamptothecin], for which the IC50 with OE33 cells (read-out: IC50) was in the range of 0.1 to 0.5 µM. Take `CC[C@@]1(O)C(=O)OCc2c1cc1n(c2=O)Cc2cc3c(CNN4CCCCC4)c(O)ccc3nc2-1` [Compound 26, 9-(piperidine-1-amine)methyl-10-hydroxycamptothecin]: in the assay with OE33 cells (read-out: IC50), the IC50 lay in the range of 0.1 to 0.5 µM. Compound `CC[C@@]1(O)C(=O)OCc2c1cc1n(c2=O)Cc2cc3c(CN(C)CC4CCNCC4)c(O)ccc3nc2-1` [Compound 28, 9-(N-methyl(piperidine-4-methyl)amine)methyl-10-hydroxycamptothecin] gave an IC50 in the assay with OE33 cells of 0.1 to 0.5 µM. Regarding `CC[C@@]1(O)C(=O)OCc2c1cc1n(c2=O)Cc2cc3c(CN4CCC5(CCNCC5)CC4)c(O)ccc3nc2-1` [Compound 29, 9-(3-(undeca-5,5-spirocyclo-3,9-diazane))methyl-10-hydroxycamptothecin], in the assay on OE33 cells (read-out: IC50), the IC50 was 0.1 to 0.5 µM. Take `CC[C@@]1(O)C(=O)OCc2c1cc1n(c2=O)Cc2cc3c(CNCCC4CCNCC4)c(O)ccc3nc2-1` [Compound 30, 9-(piperidine-4-ethylamine)methyl-10-hydroxycamptothecin]: the concentration for half-maximal inhibition (IC50) with OE33 cells lay in the range of 0.1 to 0.5 µM. Regarding `CC[C@@]1(O)C(=O)OCc2c1cc1n(c2=O)Cc2cc3c(CN4CCC[C@H]4C(=O)OC(C)(C)C)c(O)ccc3nc2-1` [Compound 31, 9-(L-prolinetert-butyl ester)methyl-10-hydroxycamptothecin], the IC50 with OE33 cells (read-out: IC50) was 0.1 to 0.5 µM. Still for that read-out and setting: under `CC[C@@]1(O)C(=O)OCc2c1cc1n(c2=O)Cc2cc3c(CN4CCC(C(=O)OC)CC4)c(O)ccc3nc2-1` [Compound 33, 9-(1-piperidine-4-methylformate)methyl-10-hydroxycamptothecin] stands 0.1 to 0.5 µM. Take `CC[C@@]1(O)C(=O)OCc2c1cc1n(c2=O)Cc2cc3c(CN4CCC(C(=O)O)CC4)c(O)ccc3nc2-1` [Compound 34, 9-(1-piperidine-4-carboxyllic acid)methyl-10-hydroxycamptothecin]: the IC50 with OE33 cells (read-out: IC50) is over 0.5 µM. On the same count and under the same terms, under `CC[C@@]1(O)C(=O)OCc2c1cc1n(c2=O)Cc2cc3c(CN[C@@H](C)C(=O)OC(C)(C)C)c(O)ccc3nc2-1` [Compound 35, 9-(L-alaninetert-butyl ester)methyl-10-hydroxycamptothecin] stands 0.05 to 0.1 µM.

Regarding `CC[C@@]1(O)C(=O)OCc2c1cc1n(c2=O)Cc2cc3c(CN(C)[C@@H](C)C(=O)O)c(O)ccc3nc2-1` [Compound 36, 9-(N-methyl-L-alanine)methyl-10-hydroxycamptothecin], the IC50 with OE33 cells (read-out: IC50) is 0.1 to 0.5 µM.

Take `CC[C@@]1(O)C(=O)OCc2c1cc1n(c2=O)Cc2cc3c(CNC4CCOCC4)c(O)ccc3nc2-1` [Compound 37, 9-(tetrahydropyran-4-amine)methyl-10-hydroxycamptothecin]: in the assay on OE33 cells (read-out: IC50), the 50% inhibitory concentration (IC50) lay within 0.1 to 0.5 µM.

`CC[C@@]1(O)C(=O)OCc2c1cc1n(c2=O)Cc2cc3c4c(ccc3nc2-1)OCN(CC(F)(F)F)C4` [Compound 40, 3-(N-(2,2,2-trifluoroethyl))-1.3-oxazino[5,6][9,10]camptothecin]: the half-maximal inhibitory concentration (IC50) in the assay on OE33 cells (read-out: IC50) lay in the range of 0.1 to 0.5 µM.

`CC[C@@]1(O)C(=O)OCc2c1cc1n(c2=O)Cc2cc3c(CN[C@H]4CC[C@H](OC)CC4)c(O)ccc3nc2-1` [Compound 42, 9-(trans-4-methoxycyclohexylamine)methyl-10-hydroxycamptothecin]: the concentration for half-maximal inhibition (IC50) in the assay on OE33 cells (read-out: IC50) lay in the range of 0.1 to 0.5 µM. In the assay with OE33 cells, `CC[C@@]1(O)C(=O)OCc2c1cc1n(c2=O)Cc2cc3c(CNCC4CCOCC4)c(O)ccc3nc2-1` [Compound 43, 9-(tetrahydropyran-4-methylamine)methyl-10-hydroxycamptothecin] displayed an IC50 of 0.1 to 0.5 µM.

Consider `CC[C@@]1(O)C(=O)OCc2c1cc1n(c2=O)Cc2cc3c(CN4CCN(C(=O)CO)CC4)c(O)ccc3nc2-1` [Compound 46, 9-(1-(4-hydroxyacetylpiperazine))methyl-10-hydroxycamptothecin], for which, in the assay on OE33 cells, the IC50 lay in the range of 0.1 to 0.5 µM.
